# Results from ChEMBL document CHEMBL4699602, “Stapled and Xenopus Glucagon-Like Peptide 1 (GLP-1)-Based Dual GLP-1/Gastrin Receptor Agonists with Improved Metabolic Benefits in Rodent Models of Obesity and Diabetes” (J Med Chem, 2020).
# pEC50: −log10 of the molar value. Where a SMILES comes first, the peptide text is derived from it. [ ]: non-standard residue; d: D form. Aib = CC(C)(N)C(=O)O
# Target: Glucagon-like peptide 1 receptor (Homo sapiens, UniProt P43220)
# Experiment: Agonist activity at human GLP-1R expressed in HEK293 cells assessed as stimulation of cAMP accumulation incubated for 20 mins
# Assay type: functional, cell-based
# Chain of Glucagon-like peptide 1 receptor (P43220 whole entry): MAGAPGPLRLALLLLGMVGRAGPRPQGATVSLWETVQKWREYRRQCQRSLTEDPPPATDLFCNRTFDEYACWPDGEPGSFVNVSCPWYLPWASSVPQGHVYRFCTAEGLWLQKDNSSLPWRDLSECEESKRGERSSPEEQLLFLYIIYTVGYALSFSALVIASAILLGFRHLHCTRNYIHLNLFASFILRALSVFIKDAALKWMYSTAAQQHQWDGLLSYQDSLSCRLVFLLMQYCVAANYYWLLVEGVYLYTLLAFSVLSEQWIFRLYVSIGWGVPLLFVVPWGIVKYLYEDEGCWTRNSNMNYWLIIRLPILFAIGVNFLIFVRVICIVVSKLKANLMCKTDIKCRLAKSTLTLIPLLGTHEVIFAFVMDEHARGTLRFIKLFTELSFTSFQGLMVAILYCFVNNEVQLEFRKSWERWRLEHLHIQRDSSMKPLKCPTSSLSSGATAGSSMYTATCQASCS
row,pEC50,Compound
1,9.21,CC[C@H](C)[C@H](NC(=O)[C@H](CC(C)C)NC(=O)[C@H](Cc1c[nH]c2ccccc12)NC(=O)[C@H](CCC(=O)O)NC(=O)[C@H](CS)NC(=O)[C@H](Cc1ccccc1)NC(=O)[C@H](CCC(=O)O)NC(=O)[C@H](CCCCN)NC(=O)[C@H](C)NC(=O)[C@H](C)NC(=O)[C@H](CCC(=O)O)NC(=O)[C@H](CCC(=O)O)NC(=O)[C@H](CCC(=O)O)NC(=O)[C@H](CC(C)C)NC(=O)[C@H](Cc1ccc(O)cc1)NC(=O)[C@H](CCC(=O)O)NC(=O)[C@@H](NC(=O)[C@@H](NC(=O)[C@H](CC(=O)O)NC(=O)[C@H](CC(N)=O)NC(=O)[C@@H](NC(=O)[C@H](Cc1ccc(O)cc1)NC(=O)[C@@H](NC(=O)CNC(=O)[C@H](CCC(=O)O)NC(=O)C(C)(C)NC(=O)[C@@H](N)Cc1c[nH]cn1)[C@@H](C)O)[C@@H](C)O)C(C)C)[C@@H](C)O)C(=O)N[C@@H](CCCCN)C(=O)NCC(=O)N[C@@H](CS)C(N)=O (HELM PEPTIDE1{H.[Aib].E.G.T.Y.T.N.D.V.T.E.Y.L.E.E.E.A.A.K.E.F.C.E.W.L.I.K.G.C.[am]}$$$$V2.0)
2,9.17,CC[C@H](C)[C@H](NC(=O)[C@H](CS)NC(=O)[C@H](Cc1c[nH]c2ccccc12)NC(=O)[C@H](CCC(=O)O)NC(=O)[C@@H](NC(=O)[C@H](Cc1ccccc1)NC(=O)[C@H](CCC(=O)O)NC(=O)[C@H](CCCCN)NC(=O)[C@H](CS)NC(=O)[C@H](C)NC(=O)[C@H](CCC(=O)O)NC(=O)[C@H](CCC(=O)O)NC(=O)[C@H](CCC(=O)O)NC(=O)[C@H](CC(C)C)NC(=O)[C@H](Cc1ccc(O)cc1)NC(=O)[C@H](CCC(=O)O)NC(=O)[C@@H](NC(=O)[C@@H](NC(=O)[C@H](CC(=O)O)NC(=O)[C@H](CC(N)=O)NC(=O)[C@@H](NC(=O)[C@H](Cc1ccc(O)cc1)NC(=O)[C@@H](NC(=O)CNC(=O)[C@H](CCC(=O)O)NC(=O)C(C)(C)NC(=O)[C@@H](N)Cc1c[nH]cn1)[C@@H](C)O)[C@@H](C)O)C(C)C)[C@@H](C)O)[C@@H](C)CC)C(=O)N[C@@H](CCCCN)C(=O)NCC(=O)N[C@@H](CCCCN)C(N)=O (HELM PEPTIDE1{H.[Aib].E.G.T.Y.T.N.D.V.T.E.Y.L.E.E.E.A.C.K.E.F.I.E.W.C.I.K.G.K.[am]}$$$$V2.0)
3,9.48,CC[C@H](C)[C@H](NC(=O)[C@H](CC(C)C)NC(=O)[C@H](CS)NC(=O)[C@H](CCC(=O)O)NC(=O)[C@@H](NC(=O)[C@H](Cc1ccccc1)NC(=O)[C@H](CCC(=O)O)NC(=O)[C@H](CCCCN)NC(=O)[C@H](C)NC(=O)[C@H](CS)NC(=O)[C@H](CCC(=O)O)NC(=O)[C@H](CCC(=O)O)NC(=O)[C@H](CCC(=O)O)NC(=O)[C@H](CC(C)C)NC(=O)[C@H](Cc1ccc(O)cc1)NC(=O)[C@H](CCC(=O)O)NC(=O)[C@@H](NC(=O)[C@@H](NC(=O)[C@H](CC(=O)O)NC(=O)[C@H](CC(N)=O)NC(=O)[C@@H](NC(=O)[C@H](Cc1ccc(O)cc1)NC(=O)[C@@H](NC(=O)CNC(=O)[C@H](CCC(=O)O)NC(=O)C(C)(C)NC(=O)[C@@H](N)Cc1c[nH]cn1)[C@@H](C)O)[C@@H](C)O)C(C)C)[C@@H](C)O)[C@@H](C)CC)C(=O)N[C@@H](CCCCN)C(=O)NCC(=O)N[C@@H](CCCCN)C(N)=O (HELM PEPTIDE1{H.[Aib].E.G.T.Y.T.N.D.V.T.E.Y.L.E.E.E.C.A.K.E.F.I.E.C.L.I.K.G.K.[am]}$$$$V2.0)
4,9.89,H-H[Aib]EGTYTNDVCEYLEEECAKEFIEWLIKGKPSSGAPPSKKKKKK-NH2 (cysteines drawn unpaired)
5,9.80,H-H[Aib]EGTYTNDVTECLEEEAACEFIEWLIKGKPSSGAPPSKKKKKK-NH2 (cysteines drawn unpaired)

row,Compound,pEC50
1,CC[C@H](C)[C@H](NC(=O)[C@H](CC(C)C)NC(=O)[C@H](Cc1c[nH]c2ccccc12)NC(=O)[C@H](CCC(=O)O)NC(=O)[C@H](CS)NC(=O)[C@H](Cc1ccccc1)NC(=O)[C@H](CCC(=O)O)NC(=O)[C@H](CCCCN)NC(=O)[C@H](C)NC(=O)[C@H](C)NC(=O)[C@H](CCC(=O)O)NC(=O)[C@H](CCC(=O)O)NC(=O)[C@H](CCC(=O)O)NC(=O)[C@H](CC(C)C)NC(=O)[C@H](Cc1ccc(O)cc1)NC(=O)[C@H](CCC(=O)O)NC(=O)[C@@H](NC(=O)[C@@H](NC(=O)[C@H](CC(=O)O)NC(=O)[C@H](CC(N)=O)NC(=O)[C@@H](NC(=O)[C@H](Cc1ccc(O)cc1)NC(=O)[C@@H](NC(=O)CNC(=O)[C@H](CCC(=O)O)NC(=O)C(C)(C)NC(=O)[C@@H](N)Cc1c[nH]cn1)[C@@H](C)O)[C@@H](C)O)C(C)C)[C@@H](C)O)C(=O)N[C@@H](CCCCN)C(=O)NCC(=O)N[C@@H](CS)C(=O)N1CCC[C@H]1C(=O)N[C@@H](CO)C(=O)N[C@@H](CO)C(=O)NCC(=O)N[C@@H](C)C(=O)N1CCC[C@H]1C(=O)N1CCC[C@H]1C(=O)N1CCC[C@H]1C(=O)N[C@@H](CO)C(N)=O (HELM PEPTIDE1{H.[Aib].E.G.T.Y.T.N.D.V.T.E.Y.L.E.E.E.A.A.K.E.F.C.E.W.L.I.K.G.C.P.S.S.G.A.P.P.P.S.[am]}$$$$V2.0),9.68
2,CC[C@H](C)[C@H](NC(=O)[C@H](CS)NC(=O)[C@H](Cc1c[nH]c2ccccc12)NC(=O)[C@H](CCC(=O)O)NC(=O)[C@@H](NC(=O)[C@H](Cc1ccccc1)NC(=O)[C@H](CCC(=O)O)NC(=O)[C@H](CCCCN)NC(=O)[C@H](CS)NC(=O)[C@H](C)NC(=O)[C@H](CCC(=O)O)NC(=O)[C@H](CCC(=O)O)NC(=O)[C@H](CCC(=O)O)NC(=O)[C@H](CC(C)C)NC(=O)[C@H](Cc1ccc(O)cc1)NC(=O)[C@H](CCC(=O)O)NC(=O)[C@@H](NC(=O)[C@@H](NC(=O)[C@H](CC(=O)O)NC(=O)[C@H](CC(N)=O)NC(=O)[C@@H](NC(=O)[C@H](Cc1ccc(O)cc1)NC(=O)[C@@H](NC(=O)CNC(=O)[C@H](CCC(=O)O)NC(=O)C(C)(C)NC(=O)[C@@H](N)Cc1c[nH]cn1)[C@@H](C)O)[C@@H](C)O)C(C)C)[C@@H](C)O)[C@@H](C)CC)C(=O)N[C@@H](CCCCN)C(=O)NCC(=O)N[C@@H](CCCCN)C(=O)N1CCC[C@H]1C(=O)N[C@@H](CO)C(=O)N[C@@H](CO)C(=O)NCC(=O)N[C@@H](C)C(=O)N1CCC[C@H]1C(=O)N1CCC[C@H]1C(=O)N1CCC[C@H]1C(=O)N[C@@H](CO)C(N)=O (HELM PEPTIDE1{H.[Aib].E.G.T.Y.T.N.D.V.T.E.Y.L.E.E.E.A.C.K.E.F.I.E.W.C.I.K.G.K.P.S.S.G.A.P.P.P.S.[am]}$$$$V2.0),9.62
3,CC[C@H](C)[C@H](NC(=O)[C@H](CC(C)C)NC(=O)[C@H](CS)NC(=O)[C@H](CCC(=O)O)NC(=O)[C@@H](NC(=O)[C@H](Cc1ccccc1)NC(=O)[C@H](CCC(=O)O)NC(=O)[C@H](CCCCN)NC(=O)[C@H](C)NC(=O)[C@H](CS)NC(=O)[C@H](CCC(=O)O)NC(=O)[C@H](CCC(=O)O)NC(=O)[C@H](CCC(=O)O)NC(=O)[C@H](CC(C)C)NC(=O)[C@H](Cc1ccc(O)cc1)NC(=O)[C@H](CCC(=O)O)NC(=O)[C@@H](NC(=O)[C@@H](NC(=O)[C@H](CC(=O)O)NC(=O)[C@H](CC(N)=O)NC(=O)[C@@H](NC(=O)[C@H](Cc1ccc(O)cc1)NC(=O)[C@@H](NC(=O)CNC(=O)[C@H](CCC(=O)O)NC(=O)C(C)(C)NC(=O)[C@@H](N)Cc1c[nH]cn1)[C@@H](C)O)[C@@H](C)O)C(C)C)[C@@H](C)O)[C@@H](C)CC)C(=O)N[C@@H](CCCCN)C(=O)NCC(=O)N[C@@H](CCCCN)C(=O)N1CCC[C@H]1C(=O)N[C@@H](CO)C(=O)N[C@@H](CO)C(=O)NCC(=O)N[C@@H](C)C(=O)N1CCC[C@H]1C(=O)N1CCC[C@H]1C(=O)N1CCC[C@H]1C(=O)N[C@@H](CO)C(N)=O (HELM PEPTIDE1{H.[Aib].E.G.T.Y.T.N.D.V.T.E.Y.L.E.E.E.C.A.K.E.F.I.E.C.L.I.K.G.K.P.S.S.G.A.P.P.P.S.[am]}$$$$V2.0),9.89
